In patent US12612441B2, “Polypeptide and therapeutic uses thereof” (Vitalixir (Beijing) Co., Ltd, priority 2019, dated 2026):
Where no end group is shown, it is not given here. [ ]: non-standard residue; d: D form. Aib = CC(C)(N)C(=O)O

The substances below were run on db/db mice (assay: Blood glucose lowering in db/db mice (Example 7)). Conditions: db/db male mice, 30 nmol/kg subcutaneous single dose, blood glucose 0-10 hours, AUC, vs PBS control; FIG. 1.
Type: in vivo
Method: db/db mice were housed in animal feeding rooms with strictly controlled environmental conditions. The temperature in the feeding room was maintained at 20-24° C. and the humidity was maintained at 40-70%. The temperature and humidity of the feeding room were monitored in real time by a temperature and humidity meter, and the temperature and humidity were recorded twice a day (once in the morning and once in the afternoon). The lighting in the animal feeding room was controlled by an electronic timing light-on system. The lights were turned on for 12 hours and turned off for 12 hours every day (on at 7:00 in the morning and off at 19:00 in the afternoon). During the experiment, the mice were individually housed in each cage, and toys were provided to the mice in each cage. During the experiment mice had free access to water. The db/db male mice (6 weeks old) were given one week to acclimate to the environmental conditions of the test facility. Baseline blood glucose and body weight were recorded for three days before the test (−3 day to −1 day). The mice were randomly grouped based on three-day blood glucose and body weight, with 6 mice in each group. The mice were injected subcutaneously with PBS (5 ml/kg, control group) or the peptide compounds 1, 2, 8, 16, 18, 19, 24, and 36 (30 nmol/kg) respectively at 10:00 am. Blood was collected at 0 hour before drug administration, and 1, 2, 4, 6, 8 and 10 hours after administration, and blood glucose was measured using a OneTouch glucose meter (Johnson & Johnson) and test strips. Blood glucose curves were plotted with time as the abscissa and the blood glucose value at different time point as the ordinate, the areas under the curve (AUC) were calculated, and the hypoglycemic effects and duration of time of the peptide compounds were compared.
With “Y(aib)EGTFTSDYSIYLDEEAVKLFVNWLIAGGPSSGAPPPS-NH2 (Y[Aib]EGTFTSDYSIYLDEEAVKLFVNWLIAGGPSSGAPPPS-NH2; N-terminus assumed; SMILES CC[C@H](C)[C@H](NC(=O)[C@H](CC(C)C)NC(=O)[C@H](Cc1c[nH]c2ccccc12)NC(=O)[C@H](CC(N)=O)NC(=O)[C@@H](NC(=O)[C@H](Cc1ccccc1)NC(=O)[C@H](CC(C)C)NC(=O)[C@H](CCCCN)NC(=O)[C@@H](NC(=O)[C@H](C)NC(=O)[C@H](CCC(=O)O)NC(=O)[C@H](CCC(=O)O)NC(=O)[C@H](CC(=O)O)NC(=O)[C@H](CC(C)C)NC(=O)[C@H](Cc1ccc(O)cc1)NC(=O)[C@@H](NC(=O)[C@H](CO)NC(=O)[C@H](Cc1ccc(O)cc1)NC(=O)[C@H](CC(=O)O)NC(=O)[C@H](CO)NC(=O)[C@@H](NC(=O)[C@H](Cc1ccccc1)NC(=O)[C@@H](NC(=O)CNC(=O)[C@H](CCC(=O)O)NC(=O)C(C)(C)NC(=O)[C@@H](N)Cc1ccc(O)cc1)[C@@H](C)O)[C@@H](C)O)[C@@H](C)CC)C(C)C)C(C)C)C(=O)N[C@@H](C)C(=O)NCC(=O)NCC(=O)N1CCC[C@H]1C(=O)N[C@@H](CO)C(=O)N[C@@H](CO)C(=O)NCC(=O)N[C@@H](C)C(=O)N1CCC[C@H]1C(=O)N1CCC[C@H]1C(=O)N1CCC[C@H]1C(=O)N[C@@H](CO)C(N)=O) [Compound 2]” the blood glucose was “significantly reduce blood glucose”.
“Y(aib)EGTFTSDYSIYLEKEAVRLFIEWLIAGGPSSGAPPPS-NH2 (Y[Aib]EGTFTSDYSIYLEKEAVRLFIEWLIAGGPSSGAPPPS-NH2; N-terminus assumed; SMILES CC[C@H](C)[C@H](NC(=O)[C@H](CC(C)C)NC(=O)[C@H](Cc1c[nH]c2ccccc12)NC(=O)[C@H](CCC(=O)O)NC(=O)[C@@H](NC(=O)[C@H](Cc1ccccc1)NC(=O)[C@H](CC(C)C)NC(=O)[C@H](CCCNC(=N)N)NC(=O)[C@@H](NC(=O)[C@H](C)NC(=O)[C@H](CCC(=O)O)NC(=O)[C@H](CCCCN)NC(=O)[C@H](CCC(=O)O)NC(=O)[C@H](CC(C)C)NC(=O)[C@H](Cc1ccc(O)cc1)NC(=O)[C@@H](NC(=O)[C@H](CO)NC(=O)[C@H](Cc1ccc(O)cc1)NC(=O)[C@H](CC(=O)O)NC(=O)[C@H](CO)NC(=O)[C@@H](NC(=O)[C@H](Cc1ccccc1)NC(=O)[C@@H](NC(=O)CNC(=O)[C@H](CCC(=O)O)NC(=O)C(C)(C)NC(=O)[C@@H](N)Cc1ccc(O)cc1)[C@@H](C)O)[C@@H](C)O)[C@@H](C)CC)C(C)C)[C@@H](C)CC)C(=O)N[C@@H](C)C(=O)NCC(=O)NCC(=O)N1CCC[C@H]1C(=O)N[C@@H](CO)C(=O)N[C@@H](CO)C(=O)NCC(=O)N[C@@H](C)C(=O)N1CCC[C@H]1C(=O)N1CCC[C@H]1C(=O)N1CCC[C@H]1C(=O)N[C@@H](CO)C(N)=O) [Compound 16]” was tested, and the blood glucose was “significantly reduce blood glucose”.
“Y(aib)EGTFTSDYSIYLDEEAVRLFVNWLIAGGPSSGAPPPS-NH2 (Y[Aib]EGTFTSDYSIYLDEEAVRLFVNWLIAGGPSSGAPPPS-NH2; N-terminus assumed; SMILES CC[C@H](C)[C@H](NC(=O)[C@H](CC(C)C)NC(=O)[C@H](Cc1c[nH]c2ccccc12)NC(=O)[C@H](CC(N)=O)NC(=O)[C@@H](NC(=O)[C@H](Cc1ccccc1)NC(=O)[C@H](CC(C)C)NC(=O)[C@H](CCCNC(=N)N)NC(=O)[C@@H](NC(=O)[C@H](C)NC(=O)[C@H](CCC(=O)O)NC(=O)[C@H](CCC(=O)O)NC(=O)[C@H](CC(=O)O)NC(=O)[C@H](CC(C)C)NC(=O)[C@H](Cc1ccc(O)cc1)NC(=O)[C@@H](NC(=O)[C@H](CO)NC(=O)[C@H](Cc1ccc(O)cc1)NC(=O)[C@H](CC(=O)O)NC(=O)[C@H](CO)NC(=O)[C@@H](NC(=O)[C@H](Cc1ccccc1)NC(=O)[C@@H](NC(=O)CNC(=O)[C@H](CCC(=O)O)NC(=O)C(C)(C)NC(=O)[C@@H](N)Cc1ccc(O)cc1)[C@@H](C)O)[C@@H](C)O)[C@@H](C)CC)C(C)C)C(C)C)C(=O)N[C@@H](C)C(=O)NCC(=O)NCC(=O)N1CCC[C@H]1C(=O)N[C@@H](CO)C(=O)N[C@@H](CO)C(=O)NCC(=O)N[C@@H](C)C(=O)N1CCC[C@H]1C(=O)N1CCC[C@H]1C(=O)N1CCC[C@H]1C(=O)N[C@@H](CO)C(N)=O) [Compound 1]” was tested, and the blood glucose was “significantly reduce blood glucose”.
For “Y(aib)EGTFTSDLSIQLEKEAARLFIEWLLAGGPSSGAPPPS-NH2 (Y[Aib]EGTFTSDLSIQLEKEAARLFIEWLLAGGPSSGAPPPS-NH2; N-terminus assumed; SMILES CC[C@H](C)[C@H](NC(=O)[C@H](Cc1ccccc1)NC(=O)[C@H](CC(C)C)NC(=O)[C@H](CCCNC(=N)N)NC(=O)[C@H](C)NC(=O)[C@H](C)NC(=O)[C@H](CCC(=O)O)NC(=O)[C@H](CCCCN)NC(=O)[C@H](CCC(=O)O)NC(=O)[C@H](CC(C)C)NC(=O)[C@H](CCC(N)=O)NC(=O)[C@@H](NC(=O)[C@H](CO)NC(=O)[C@H](CC(C)C)NC(=O)[C@H](CC(=O)O)NC(=O)[C@H](CO)NC(=O)[C@@H](NC(=O)[C@H](Cc1ccccc1)NC(=O)[C@@H](NC(=O)CNC(=O)[C@H](CCC(=O)O)NC(=O)C(C)(C)NC(=O)[C@@H](N)Cc1ccc(O)cc1)[C@@H](C)O)[C@@H](C)O)[C@@H](C)CC)C(=O)N[C@@H](CCC(=O)O)C(=O)N[C@@H](Cc1c[nH]c2ccccc12)C(=O)N[C@@H](CC(C)C)C(=O)N[C@@H](CC(C)C)C(=O)N[C@@H](C)C(=O)NCC(=O)NCC(=O)N1CCC[C@H]1C(=O)N[C@@H](CO)C(=O)N[C@@H](CO)C(=O)NCC(=O)N[C@@H](C)C(=O)N1CCC[C@H]1C(=O)N1CCC[C@H]1C(=O)N1CCC[C@H]1C(=O)N[C@@H](CO)C(N)=O) [Compound 18]”, the blood glucose was “significantly reduce blood glucose”.
“Y(aib)EGTFTSDLSIQLEKEAVRLFIEWLLAGGPSSGAPPPS-NH2 (Y[Aib]EGTFTSDLSIQLEKEAVRLFIEWLLAGGPSSGAPPPS-NH2; N-terminus assumed; SMILES CC[C@H](C)[C@H](NC(=O)[C@H](CO)NC(=O)[C@H](CC(C)C)NC(=O)[C@H](CC(=O)O)NC(=O)[C@H](CO)NC(=O)[C@@H](NC(=O)[C@H](Cc1ccccc1)NC(=O)[C@@H](NC(=O)CNC(=O)[C@H](CCC(=O)O)NC(=O)C(C)(C)NC(=O)[C@@H](N)Cc1ccc(O)cc1)[C@@H](C)O)[C@@H](C)O)C(=O)N[C@@H](CCC(N)=O)C(=O)N[C@@H](CC(C)C)C(=O)N[C@@H](CCC(=O)O)C(=O)N[C@@H](CCCCN)C(=O)N[C@@H](CCC(=O)O)C(=O)N[C@@H](C)C(=O)N[C@H](C(=O)N[C@@H](CCCNC(=N)N)C(=O)N[C@@H](CC(C)C)C(=O)N[C@@H](Cc1ccccc1)C(=O)N[C@H](C(=O)N[C@@H](CCC(=O)O)C(=O)N[C@@H](Cc1c[nH]c2ccccc12)C(=O)N[C@@H](CC(C)C)C(=O)N[C@@H](CC(C)C)C(=O)N[C@@H](C)C(=O)NCC(=O)NCC(=O)N1CCC[C@H]1C(=O)N[C@@H](CO)C(=O)N[C@@H](CO)C(=O)NCC(=O)N[C@@H](C)C(=O)N1CCC[C@H]1C(=O)N1CCC[C@H]1C(=O)N1CCC[C@H]1C(=O)N[C@@H](CO)C(N)=O)[C@@H](C)CC)C(C)C) [Compound 19]” was tested, and the blood glucose was “significantly reduce blood glucose”.
For “Y(aib)EGTFTSDLSI(aib)LEKEAVRLFIEWLLAGGPSSGAPPPS-NH2 (YXEGTFTSDLSIXLEKEAVRLFIEWLLAGGPSSGAPPPS; Aib; C-terminal amide; MOD_RES (2)..(2) X=aminoisobutyric aicd; MOD_RES (13)..(13) X=aminoisobutyric aicd; MOD_RES (39)..(39) AMIDATION, C-termianl amidation) [Compound 36]”, the blood glucose was “significantly reduce blood glucose”.
“Y(aib)EGTFTSDLSIQLEKEAVKLFIEWLLAGGPSSGAPPPS-NH2 (Y[Aib]EGTFTSDLSIQLEKEAVKLFIEWLLAGGPSSGAPPPS-NH2; N-terminus assumed; SMILES CC[C@H](C)[C@H](NC(=O)[C@H](CO)NC(=O)[C@H](CC(C)C)NC(=O)[C@H](CC(=O)O)NC(=O)[C@H](CO)NC(=O)[C@@H](NC(=O)[C@H](Cc1ccccc1)NC(=O)[C@@H](NC(=O)CNC(=O)[C@H](CCC(=O)O)NC(=O)C(C)(C)NC(=O)[C@@H](N)Cc1ccc(O)cc1)[C@@H](C)O)[C@@H](C)O)C(=O)N[C@@H](CCC(N)=O)C(=O)N[C@@H](CC(C)C)C(=O)N[C@@H](CCC(=O)O)C(=O)N[C@@H](CCCCN)C(=O)N[C@@H](CCC(=O)O)C(=O)N[C@@H](C)C(=O)N[C@H](C(=O)N[C@@H](CCCCN)C(=O)N[C@@H](CC(C)C)C(=O)N[C@@H](Cc1ccccc1)C(=O)N[C@H](C(=O)N[C@@H](CCC(=O)O)C(=O)N[C@@H](Cc1c[nH]c2ccccc12)C(=O)N[C@@H](CC(C)C)C(=O)N[C@@H](CC(C)C)C(=O)N[C@@H](C)C(=O)NCC(=O)NCC(=O)N1CCC[C@H]1C(=O)N[C@@H](CO)C(=O)N[C@@H](CO)C(=O)NCC(=O)N[C@@H](C)C(=O)N1CCC[C@H]1C(=O)N1CCC[C@H]1C(=O)N1CCC[C@H]1C(=O)N[C@@H](CO)C(N)=O)[C@@H](C)CC)C(C)C) [Compound 24]” was tested, and the blood glucose was “significantly reduce blood glucose”.
